# Patent US20170333591A9, “ABSORBENT ARTICLE COMPRISING MALODOR REDUCTION COMPOSITIONS” (The Procter & Gamble Company, priority 2014, published 2017)
# Assay: Log of liquid dish neat product liquid-air partition coefficient
# Format: physicochemical
# Conditions: for Log of liquid dish neat product liquid-air partition coefficient (Comment Code): code letters K/L of the Comment Code; for Log of liquid dish neat product liquid-air partition coefficient (Comment Code K/L): Comment Code letters K and/or L
SMILES,Log of liquid dish neat product liquid-air partition coefficient (Comment Code),Comment Code: Log of liquid dish neat product liquid-air partition coefficient,Log of liquid dish neat product liquid-air partition coefficient (Comment Code K/L)
CC1CC=CCCCCCCCC(=O)OCC1 (centres unmarked) [Material 1099],K (Log of liquid dish neat product liquid-air partition coefficient greater than or equal to 7),–,–
CCCCCCCCCCC=O [Material 1102],K (Log of liquid dish neat product liquid-air partition coefficient greater than or equal to 7),–,–
CCC=C(C)C(O)CCCCC (centres unmarked) [Material 1104],K (Log of liquid dish neat product liquid-air partition coefficient greater than or equal to 7),–,–
C=C(C)[C@@H]1CCC2=CCC[C@@H](C)[C@]2(C)C1 [Material 1105],K (Log of liquid dish neat product liquid-air partition coefficient greater than or equal to 7),–,–
C[C@@H]1CCC=C2CC[C@@H](C(C)(C)O)C[C@]21C [Material 1107],K (Log of liquid dish neat product liquid-air partition coefficient greater than or equal to 7),K (Log of liquid dish neat product liquid-air partition coefficient greater than or equal to 7),–
CC=Cc1ccc(OCC)c(O)c1 [Material 1112],–,K (Log of liquid dish neat product liquid-air partition coefficient greater than or equal to 7),–
COCc1ccc(O)c(OC)c1 [Material 1113],–,–,K (Log of liquid dish neat product liquid-air partition coefficient greater than or equal to 7)
CC(C=O)=CCC1C(C)=CCCC1(C)C (centres unmarked) [Material 1116],–,–,K (Log of liquid dish neat product liquid-air partition coefficient greater than or equal to 7)
COc1ccc(C=O)cc1OC [Material 1118],–,K (Log of liquid dish neat product liquid-air partition coefficient greater than or equal to 7),–
CC1CC(C)(c2ccccc2)OC(C)O1 (centres unmarked) [Material 1126],–,–,K (Log of liquid dish neat product liquid-air partition coefficient greater than or equal to 7)
CC(=O)C1=C(C)[C@@H]2C[C@@]3(C1)[C@H](C)CC[C@H]3C2(C)C [Material 1129],–,K (Log of liquid dish neat product liquid-air partition coefficient greater than or equal to 7),K (Log of liquid dish neat product liquid-air partition coefficient greater than or equal to 7)
CC(=O)OC(C)CC(C)(C)c1ccccc1 (centres unmarked) [Material 1134],–,K (Log of liquid dish neat product liquid-air partition coefficient greater than or equal to 7),–
C[C@@H]1CC[C@H]2[C@@H]1[C@H]1[C@@H](CC[C@]2(C)O)C1(C)C [Material 1140],–,K (Log of liquid dish neat product liquid-air partition coefficient greater than or equal to 7),K (Log of liquid dish neat product liquid-air partition coefficient greater than or equal to 7)
C[C@H]1[C@@H]2C[C@H](C[C@@]13C=CC(=O)CC3)C2(C)C [Material 1143],–,K (Log of liquid dish neat product liquid-air partition coefficient greater than or equal to 7),K (Log of liquid dish neat product liquid-air partition coefficient greater than or equal to 7)
CC1(C)C2CCC3(C2)C1C1(CCC3(C)C)OCCO1 (centres unmarked) [Material 1144],–,K (Log of liquid dish neat product liquid-air partition coefficient greater than or equal to 7),K (Log of liquid dish neat product liquid-air partition coefficient greater than or equal to 7)
CC1(C)C2CCC3(C2)C1C1(CCC3(C)C)OCCO1 (centres unmarked) [Material 1145],–,K (Log of liquid dish neat product liquid-air partition coefficient greater than or equal to 7),K (Log of liquid dish neat product liquid-air partition coefficient greater than or equal to 7)
C=C1CCC2OC2(C)CCC2C1CC2(C)C (centres unmarked) [Material 1148],–,K (Log of liquid dish neat product liquid-air partition coefficient greater than or equal to 7),K (Log of liquid dish neat product liquid-air partition coefficient greater than or equal to 7)
CC1(C)C2CCC3(C2)C1C(=O)CCC3(C)C (centres unmarked) [Material 1149],–,K (Log of liquid dish neat product liquid-air partition coefficient greater than or equal to 7),K (Log of liquid dish neat product liquid-air partition coefficient greater than or equal to 7)
